Experiments:
[1] = tested on: binding of antibody 5-21-3 to rp41; test: Binding inhibition assay: peptides inhibit binding of 5-21-3 to rp41; parameters: species or system HIV I; details: for Molar Ratio at 50% inhibition of 5-21-3 binding: mean of two experiments, 0.4 pmol 5-21-3 IgG per well
Experimental: Additional evidence for the conformationl nature of the 5-21-3 epitope was obtained using binding inhibition studies, in which synthetic peptides were ranked for their ability to inhibit binding of 5-21-3 to rp41. First, the Fab dimer of an anti-gp41 monoclonal antibody was prepared by conventional methods (Goding et al., supra). Then 100 ul of a 1 mg/ml solution of the Fab dimer in bicarbonate buffer (pH 9.6) was coated onto Immulon II microtiter plates for 1 hr at 37° C. After washing with PBS containing 0.05% Tween 20, the plates were overcoated with 200 ul of 1.0% ovalbumin in bicarbonate buffer (pH 9.6) for 1 hr at 30° C. After washing, 100 ul of rp41 enriched E. coli lysate (as described in Example 3), diluted appropriately in PBS containing 0.05% Tween 20, were allowed to bind to the Fab dimer for 2 hr at 30° C. The plates were washed and stored at 4° C.
Intact monoclonal antibody 5-21-3 IgG (purified from tissue culture fluid supporting growth of the cloned cell line 5-21-3) was titrated against the bound rp41 on the plate, and an antibody concentration was selected which yielded an A492 value of 2.0-3.0. Usually, 0.4 pmol (0.06 ug) of 5-21-3 IgG per microtiter well was employed in these assays. Stock solutions of 5-21-3 IgG were prepared in PBS containing 0.1% Triton X-100 and 0.1% SDS. Dilutions of synthetic peptides were made in the same buffer (SDS was included in these experiments to keep peptides soluble at high concentrations).
The binding inhibition assay was performed by combining 0.15 ml of 1.2 ug/ml 5-21-3 antibody stock solution with 0.15 ml of peptide at a selected peptide concentration, and incubating the reaction mixture 1 hr at room temp. Then 0.1 ml aliquots of each reaction mixture were added to each of two wells in the microtiter tray. After a 1 hr incubation at room temp., the plates were washed, and HRPO conjugated Goat anti-mouse IgG Fc was added for 1 hr at room temp. The plates were washed, and addition of OPD for color development identified the relative amounts of 5-21-3 bound to rp41 in the microtiter wells. The reaction was stopped by addition of 100 ul of 1N H2SO4, and the plates were read on a Dynatech II microtiter plate reader.

[2] = tested on: monoclonal antibody 5-21-3; test: Immunoprecipitation of [125I] synthetic peptides by 5-21-3; assay type: binding, mouse; details: for SPECIFIC PRECIPITATION (CPM) by 5-21-3 / x-fold increase of specific over non-specific precipitation, 5-21-3: 5-21-3 10 μg/0.2 ml, second antibody precipitation; for SPECIFIC PRECIPITATION (CPM) by 5-21-3: PBS, 0.1% Triton X-100, 1.0% BSA, carrier serum; for x-fold increase of specific over non-specific precipitation, 5-21-3: vs normal mouse IgG
Experimental: (§1) Synthetic peptides were radiolabeled with ^125I (Amersham) by the chloramine T method (N. M. Hunter, “Radioimmunoassay” in D. M. Weir, Ed., Handbook of Experimental Immunology, [Blackwell Scientific Publications, 1973]). Generally, 2-6 ul of 100 mCi/ml ^125I were added to 10-50 ug of peptide in PBS, pH 7.4. Approximately 10 ug of freshly prepared (1 mg/ml in PBS) chloramine T were added to the mixture maintained at 4° C. After 5 min., [^125I]peptide was separated from free ^125I by passage of the reaction mixture through a 3 ml (bed volume) column of Biogel P-6 or P-2, as required. Fractions (200 ul each) containing [^125I]peptide were pooled and diluted into PBS containing 20% fetal calf serum. Rough estimations of ^125I cpm bound to peptide were made by acid precipitation. An aliquot of labeled peptide was diluted into 1 ml of ice cold 50% trichloroacetic acid (TCA) overlaying a 0.45 um filter (made of mixed cellulose esters) set on a scintered glass filter connected to a vacuum apparatus. Precipitated protein was fixed onto the filter by application of vacuum, and filters were washed with ice-cold 50% TCA. Background cpm adhering non-specifically to the filter were estimated by repeating the procedure using a non-precipitating buffer. Amounts of peptide, ^125I, chloramine T, and composition of column eluting buffer were subject to change depending on conditions required to maintain solubility of each peptide.
(§2) Synthetic peptides radiolabeled with ^125I were diluted into PBS (pH 7.4) containing 0.1% Triton X-100 (or other detergents where indicated) and 1.0% BSA, to yield approximately 2.5-5×10^5 acid-precipitable cpm per 0.1 ml. Purified monoclonal IgG 5-21-3 and 10-15-63 were employed in the assay. Monoclonal antibodies were diluted into PBS containing 0.1% Triton X-100 (or other detergents where indicated), 1.0% BSA, and 2% normal mouse serum as a carrier immunoglobulin. Immune rabbit serum (anti-P58-130) was diluted appropriately into the same buffer except that normal rabbit serum (2%) was substituted for normal mouse serum as the carrier immunoglobulin. A reaction mixture comprising 0.1 ml [^125I] peptide (5×10^5 cpm/0.1 ml) and 0.1 ml diluted antibody was incubated 1 hr at 40° C., followed by addition of 0.1 ml of a precipitating antibody, either goat anti-mouse IgG, or goat anti-rabbit IgG, corresponding to the primary antibody. The reaction mixture was incubated 1 hr at 40° C. and then overnight at 4° C. […] Precipitation assays employing Protein A-Sepharose as the precipitating reagent were performed in a similar manner, except that normal sera were omitted from the reaction mixtures.

[3] = tested on: monoclonal antibody 10-15-63; test: Immunoprecipitation of [125I] synthetic peptides by 10-15-63; assay type: binding, mouse; details: for SPECIFIC PRECIPITATION (CPM) by 10-15-63 / x-fold increase of specific over non-specific precipitation, 10-15-63: 10-15-63 10 μg/0.2 ml, second antibody precipitation; for SPECIFIC PRECIPITATION (CPM) by 10-15-63: PBS, 0.1% Triton X-100, 1.0% BSA, carrier serum; for x-fold increase of specific over non-specific precipitation, 10-15-63: vs normal mouse IgG
Experimental: as §1, §2

[4] = tested on: Rabbit (R) anti-P58-130 serum; test: Immunoprecipitation of [125I] synthetic peptides by rabbit anti-P58-130 serum; assay type: binding; details: for SPECIFIC PRECIPITATION (CPM) by RαP58-130 / x-fold increase of specific over non-specific precipitation, RαP58-130: rabbit anti-P58-130 serum 20 ul/0.2 ml, second antibody precipitation; for x-fold increase of specific over non-specific precipitation, RαP58-130: vs normal rabbit serum
Experimental: as §1, §2

[5] = tested on: monoclonal antibody 5-21-3; test: Immuno-dot blot of synthetic peptides with 5-21-3; assay type: binding, mouse; details: 25 ug/ml 5-21-3; mild washing procedures
Description: The western Blot procedure described in Example 1 was employed for development of immuno-dot blots using synthetic peptides, except that synthetic peptides were fixed to nitrocellulose by direct application using Drummond lambda pipettes, and air dried prior to blocking with 20% fetal calf serum in PBS (pH 7.4).

Row | Substance | inhibition of 5-21-3 binding to rp41, in words [1] | Molar Ratio at 50% inhibition of 5-21-3 binding [1] | binding of [125I]peptide by 5-21-3 (immunoprecipitation), in words [2] | SPECIFIC PRECIPITATION (CPM) ([2]; 5-21-3 1.0 μg/ml final) | x-fold increase of specific over non-specific precipitation ([2]; 5-21-3 1.0 μg/ml final) | SPECIFIC PRECIPITATION (CPM) by 5-21-3 [2] | x-fold increase of specific over non-specific precipitation, 5-21-3 [2] | SPECIFIC PRECIPITATION (CPM) ([2]; 5-21-3 10.0 μg/ml final) | x-fold increase of specific over non-specific precipitation ([2]; 5-21-3 10.0 μg/ml final) | SPECIFIC PRECIPITATION (CPM) ([2]; 5-21-3 100.0 μg/ml final) | x-fold increase of specific over non-specific precipitation ([2]; 5-21-3 100.0 μg/ml final) | SPECIFIC PRECIPITATION (CPM) ([3]; 10-15-63 1.0 μg/ml final) | x-fold increase of specific over non-specific precipitation ([3]; 10-15-63 1.0 μg/ml final) | SPECIFIC PRECIPITATION (CPM) by 10-15-63 [3] | x-fold increase of specific over non-specific precipitation, 10-15-63 [3] | SPECIFIC PRECIPITATION (CPM) ([3]; 10-15-63 10.0 μg/ml final) | x-fold increase of specific over non-specific precipitation ([3]; 10-15-63 10.0 μg/ml final) | SPECIFIC PRECIPITATION (CPM) ([3]; 10-15-63 100.0 μg/ml final) | SPECIFIC PRECIPITATION (CPM) by RαP58-130 [4] | x-fold increase of specific over non-specific precipitation, RαP58-130 [4] | further results
1 | IHSLIEESQNQQEKNEQELLELDK [P131-154] | could not be demonstrated | >50,000 pmoles peptide/pmoles 5-21-3 | unable to bind | 0 CPM | (0) x-fold | 970 CPM | (1.1) x-fold | 0 CPM | (0) x-fold | 0 CPM | (0) x-fold | 0 CPM | (0) x-fold | 0 CPM | (<1) x-fold | 0 CPM | (0) x-fold | 112 CPM | 0 CPM | (<1) x-fold | 5-21-3 concentration required to demonstrate binding of the peptide ([2]; immunoprecipitation, Table 5): could not be demonstrated; x-fold increase of specific over non-specific precipitation ([3]; 10-15-63 100.0 μg/ml final): (1.1) x-fold
2 | IHSLIEESQNQQEKNEQELLELDKWANLWNWLNITNWLWYIKLFI [P131-175] | definite inhibitor | 18,815 pmoles peptide/pmoles 5-21-3 | Little or no binding activity | – | – | 317 CPM | (1.6) x-fold | – | – | – | – | – | – | 188 CPM | (1.4) x-fold | – | – | – | 0 CPM | (<1) x-fold | –
3 | NH2-Asp-Arg-Glu-Ile-Asn-Asn-Tyr-Thr-Ser-Leu-Ile-His-Ser-Leu-Ile-Glu-Glu -Ser-Gln-Asn-Gln-Gln-Glu-Lys-Asn-Glu-Gln-Glu-Leu-Leu-Glu-Leu-Asp-Lys-COOH (H-DREINNYTSLIHSLIEESQNQQEKNEQELLELDK-OH) [P121-154] | potent inhibitor | 1,494 pmoles peptide/pmoles 5-21-3 | recognized by 5-21-3 | 0 CPM | (0) x-fold | 40,717 CPM | (31) x-fold | 1,113 CPM | (2.3) x-fold | 18,984 CPM | (13) x-fold | 0 CPM | (0) x-fold | 371 CPM | (1.3) x-fold | 0 CPM | (0) x-fold | 0 CPM | 310,419 CPM | (24) x-fold | immuno-dot blot reactivity with 5-21-3 [5]: faint, diffuse reaction; fold less active than P67-154 in binding inhibition [1]: 20 fold; fold restoration of binding inhibition activity relative to P131-154 [1]: 20-65 fold; x-fold increase of specific over non-specific precipitation ([3]; 10-15-63 100.0 μg/ml final): (0) x-fold; precipitation of [125I]peptide by rabbit anti-P58-130, in words [4]: strong precipitator
4 | YNYTSLIHSLIEESQNQQEKNEQELLELDKWANLWNWL [P126-162] | roughly equivalent to that of P121-154 | 1,585 pmoles peptide/pmoles 5-21-3 | recognized by 5-21-3 | 0 CPM | (0) x-fold | 11,540 CPM | (3.4) x-fold | 295 CPM | (1.1) x-fold | 4,924 CPM | (1.6) x-fold | 0 CPM | (0) x-fold | 0 CPM | (<1) x-fold | 0 CPM | (0) x-fold | 0 CPM | 0 CPM | (<1) x-fold | immuno-dot blot reactivity with 5-21-3 [5]: additional 5-21-3 reactivity was observed; x-fold increase of specific over non-specific precipitation ([3]; 10-15-63 100.0 μg/ml final): (0) x-fold

Source: patent US20030118985A1, “Mouse monoclonal antibody (5-21-3) to human immunodeficiency virus gp41 protein” (priority 1997, published 2003)
